Laboratory results: patent US20250152387A1, “COBALT-CHROMIUM ALLOY STENT AND DRUG ELUTING STENT” (AmsinoMed Medical Co., Ltd, priority 2022, published 2025)

Experiments:
[1] = tested on: vascular endothelial cells (HUVECs); assay: CCK-8 cell viability assay on vascular endothelial cells; format: cell-based; details: 24 h and 48 h
Description: The range of drug concentrations at which ATO and TAC were friendly to vascular endothelial cell viability was determined at the cellular level.
The changes in the cell viability of vascular endothelial cells (HUVECs) under the action of ATO, TAC and rapamycin (RAP) at different concentrations for 24 h and 48 h were studied by CCK-8 cell viability assay, respectively.

[2] = tested on: IL-6, IL-10 and TNF-α gene expression in HUVECs; assay: PCR of inflammatory factor gene expression in LPS-induced HUVECs; format: cell-based; details: 10 nM; HUVECs induced with LPS 1 μg/ml for 6 h
Description: The range of effective concentrations at which TAC inhibited the inflammatory response of vascular endothelial cells was verified at the cellular level.
After induction of HUVECs with LPS at a concentration of 1 μg/ml for 6 h, the inhibitory effects of TAC at different concentrations on the inflammatory response of HUVECs were detected by PCR.

[3] = tested on: vascular smooth muscle cells (HASMCs); assay: CCK-8 cell viability assay on vascular smooth muscle cells; format: cell-based; details: different concentrations, 24 h and 48 h
Description: The range of drug concentrations at which ATO and TAC were friendly to vascular smooth muscle cell viability was determined at the cellular level.
The changes in the cell viability of vascular smooth muscle cells (HASMCs) under the action of ATO, TAC and rapamycin (RAP) at different concentrations for 24 h and 48 h were studied by CCK-8 cell viability assay, respectively.

[4] = Drug release from coated stents soaked in PBS solution in a shaker; format: physicochemical; details: at 1 d; release curve obtained by adjustment
Excerpt: The process of testing the release properties of tacrolimus of the present invention comprises: soaking drug stents in a PBS solution, placing the stents in a shaker (shaking speed of 80 r/min), and taking out the stents at the corresponding time points (1 d, 7 d, 14 d, 21 d, and 28 d) (at least 3 stents for each time point), and testing the concentration of tacrolimus. The content of tacrolimus can be tested using the detection method in “Determination of Tacrolimus Tablets by HPLC” (Lv, Yongchao, Song, Yucai; Journal of Pharmaceutical Research 2013 Vol. 32, No. 4, page 1).
For the drug release properties of the present invention, the release process comprises: soaking drug stents in a PBS solution, placing the stents in a shaker (shaking speed of 100 r/min), and taking out 5 ml of the solution at the corresponding time points (1 d, 7 d, 14 d, 21 d, and 28 d) (at least 3 stents for each time point) for testing. The release of the drug arsenic trioxide is detected using the method disclosed in “Preparation and the Release Characteristic in vitro of Arsenic Trioxide Albumin Nanospheres” (Zhou, Jie, Zeng, Fuqing, Gao, Xiang, Xie, Shusheng, Wei, Shuli, Chinese Journal of New Drugs, pages 54-57).

| SMILES | concentration with no significant effect on cell viability [1] [nM] | gene expression levels of cellular inflammatory factors IL-6, IL-10 and TNF-α [2] | effect on the viability of vascular smooth muscle cells [3] | tacrolimus released [4] [%] |
| --- | --- | --- | --- | --- |
| CO[C@H]1C[C@@H]2CC[C@@H](C)[C@@](O)(O2)C(=O)C(=O)N2CCCC[C@H]2C(=O)O[C@H]([C@H](C)C[C@@H]2CC[C@@H](O)[C@H](OC)C2)CC(=O)[C@H](C)/C=C(\C)[C@@H](O)[C@@H](OC)C(=O)[C@H](C)C[C@H](C)/C=C/C=C/C=C/1C [RAP, rapamycin] | ≤ 100 | – | – | – |
| C=CC[C@@H]1/C=C(\C)C[C@H](C)C[C@H](OC)[C@H]2O[C@@](O)(C(=O)C(=O)N3CCCC[C@H]3C(=O)O[C@H](/C(C)=C/[C@@H]3CC[C@@H](O)[C@H](OC)C3)[C@H](C)[C@@H](O)CC1=O)[C@H](C)C[C@@H]2OC [TAC, tacrolimus] | ≤ 50 | effectively reduce | no significant inhibitory effect | ≥ 40 |
